For test [1], the target named is T1, mouse serotonin 5-HT2C receptor (Mus musculus, UniProt P34968).
T1 construct: gene Htr2c; recombinant receptor stably expressed in HEK293 (HEK/5-HT2C cells)
T1 sequence (P34968 33-459): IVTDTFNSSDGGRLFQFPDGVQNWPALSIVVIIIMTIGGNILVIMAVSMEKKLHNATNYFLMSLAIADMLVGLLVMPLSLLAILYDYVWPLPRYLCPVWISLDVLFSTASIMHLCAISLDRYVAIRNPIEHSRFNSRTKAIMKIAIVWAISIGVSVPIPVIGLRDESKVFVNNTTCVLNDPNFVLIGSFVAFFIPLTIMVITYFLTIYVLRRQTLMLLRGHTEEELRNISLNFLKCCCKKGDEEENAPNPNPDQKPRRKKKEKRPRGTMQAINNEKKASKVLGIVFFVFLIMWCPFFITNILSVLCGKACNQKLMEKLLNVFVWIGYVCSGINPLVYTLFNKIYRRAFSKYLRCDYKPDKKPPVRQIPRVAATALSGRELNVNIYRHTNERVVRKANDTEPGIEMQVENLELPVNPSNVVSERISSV
The experiment in a line: Fura-2 Ca2+ imaging, fraction of responsive HEK/5-HT2C cells, Hill fit. The format is cell-based.

Test [2] concerns the target T1, mouse serotonin 5-HT2C receptor. The description is as above. In kind it is cell-based. The source holds these as a separate data set.

The compound `O=c1cc(N2CCNCC2)oc2c(-c3ccccc3)cccc12` [LY303511] registered an EC50 in test [1] of 2500 nM. `O=c1cc(N2CCOCC2)oc2c(-c3ccccc3)cccc12` [LY294002] came in with an IC50 in test [2] of 1200 nM.

The EC50 is the midpoint of the concentration-response curve. A low value points to higher potency in that assay. In general, IC50 refers to the concentration needed to halve the response being measured. The low end stands for greater potency in that assay, the high end for weaker potency in that assay.
